Reference: patent publication US20090215884A1, “METHOD FOR WOUND HEALING” (priority 2005, published 2009)

Key:
[1] = tested on: keratinocytes; assay: Cytokine production by PEP005-treated human keratinocytes; format: cell-based; conditions: 6 h, supernatant
Experimental: (§1) Cytokine production by PEP005-treated human cells Confluent cultures of Me10538 cells, keratinocytes, fibroblasts and neutrophils were incubated for 6 h in the absence or presence of PEP005 (1-100 ng/ml). The supernatants were harvested and analyzed for the presence of the following cytokines; TNF-α, IL-6 and IL-8 using a multiplex detection kit (Biosource International, Nivelles, Belgium). Units of detected proteins are pg/ml.

[2] = tested on: fibroblasts; assay: Cytokine production by PEP005-treated human fibroblasts; format: cell-based; conditions: 6 h, supernatant
Experimental: as §1

[3] = tested on: dermal fibroblasts; assay: Fibroblast populated collagen lattice (FPCL) reorganization/contraction; format: cell-based, human; conditions: 0.1 μg/ml PEP005
Description: A normal adult skin biopsy (6 mm) was obtained (n=1), with informed consent, from an individual attending the Oral Surgery Clinic, School of Dentistry, Wales College of Medicine, Cardiff. Following the application of a local anaesthetic, the dermal biopsy was collected and adult dermal fibroblast cultures established by single cell suspension technique, following enzymic degradation of the specimen. This technique has previously been reliably used to establish viable primary cultures of both oral and dermal fibroblasts in vitro (Cook et al, 2000; Stephens et al, 2001; 2003). […]
(§2) The ability of dermal fibroblasts to remodel/reorganize their ECM environment in the presence of PEP005 was examined by fibroblast populated collagen lattices (FPCLs), according to Cook et al (2000). […] The degree of ECM reorganization/lattice contraction was quantified from three separate lattice diameter measurements performed on each of the three replicate samples, at days 1, 2, 3, 4, 5, 6, 7, 10 and 14, after initial fabrication. […]
Each experiment was performed on two separate occasions, with the % reductions in lattice contraction and the MMP densitometric values obtained being expressed as an average for each group of samples

[4] = tested on: MMP-2; assay: Gelatin zymography of FPCL conditioned medium; format: cell-based, human; conditions: PEP005 0.01-0.1 μg/ml
Description: as §2, with “(2000). Following trypsinization, dermal fibroblasts were suspended in Fibroblast-Serum Containing Medium, containing 10% gelatinase-free, fetal calf serum (prepared using a gelatin-A Sepharose column, GE Healthcare Ltd., Buckinghamshire, U.K.), to remove endogenous MMP-2 and MMP-9 activity.” for “(2000).”
To determine the relative amounts of pro- and active MMP species produced by the cells in the FPCL systems, gelatin zymography was employed, according to Cook et al (2000). Equal volumes (15 μl) of FPCL conditioned medium were subjected to sodium dodecyl sulphate-polyacrylamide gel electrophoresis (SDS-PAGE), on pre-cast 10% gelatin zymography gels (Ready Gel 10% Gelatin Zymogram Gels, Bio-Rad Laboratories Ltd., Hertfordshire, U.K.), incorporated into a Mini-Protean 3 Gel Electrophoresis System (Bio-Rad Laboratories Ltd.), at 15 mA for 4-5 h. […]

**Q.** Which results are given for `C/C=C(/C)C(=O)O[C@H]1C(C)=C[C@]23C(=O)[C@@H](C=C(CO)[C@@H](O)[C@]12O)[C@H]1[C@@H](C[C@H]3C)C1(C)C` [PEP005, ingenol-3-angelate]?
**A.** IL-8 ([1]; PEP005 1 ng/ml): 3910 ± 148 pg/mL; TNFα ([1]; PEP005 1 ng/ml): 510 ± 26 pg/mL; IL-8 ([1]; PEP005 5 ng/ml): 4775 ± 178 pg/mL; TNFα ([1]; PEP005 5 ng/ml): 847 ± 37 pg/mL; IL-8 ([1]; PEP005 10 ng/ml): 3895 ± 198 pg/mL; TNFα ([1]; PEP005 10 ng/ml): 498 ± 29 pg/mL; IL-8 ([1]; PEP005 100 ng/ml): 2950 ± 108 pg/mL; TNFα ([1]; PEP005 100 ng/ml): 335 ± 21 pg/mL; IL-6 ([2]; PEP005 1 ng/ml): 81 ± 4 pg/mL; IL-8 ([2]; PEP005 1 ng/ml): 79 ± 3 pg/mL; IL-6 ([2]; PEP005 5 ng/ml): 85 ± 4 pg/mL; IL-8 ([2]; PEP005 5 ng/ml): 160 ± 14 pg/mL; IL-6 ([2]; PEP005 10 ng/ml): 141 ± 6 pg/mL; IL-8 ([2]; PEP005 10 ng/ml): 215 ± 12 pg/mL; IL-6 ([2]; PEP005 100 ng/ml): 205 ± 5 pg/mL; IL-8 ([2]; PEP005 100 ng/ml): 239 ± 9 pg/mL; Type I collagen lattice contraction [3]: significantly increased; Pro and active MMP-2 levels [4]: observed to increase
